For experiment [1], the system named is Class IIa/HDAC8 HDACs. In words: Cellular HDAC assay, Boc_Lys_TFA substrate, Jurkat E6.1 cells. The class given is cell-based. As to conditions: up to 50 µM. As for the experimental part:
Briefly, Jurkat E6.1 cells (obtained from the European Collection of Cell Cultures (ECACC)) were plated into 384 well plates at 75,000 cells/well in cellular assay buffer (RPMI without phenol red, 0.1% Fetal Bovine Serum, 10 mM HEPES, 1 mM Sodium Pyruvate). Compounds of interest were diluted in assay buffer (16-point concentration curve, 1% final DMSO) and were added to wells - unless stated otherwise in the results section - for a 2 h preincubation at 37°C prior to the addition of either 100 µM Boc_Lys_TFA or Boc_Lys_Ac. Cells were incubated for a further 3 h at 37°C, followed by the addition of a trypsin (1 mg/ml) and reference compound (Compound 26 or TSA) stop-step overnight to terminate the reaction and lyse the cells. Fluorescent counts were read the following morning on the Perkin Elmer EnVision. Z’ was 0.8 for both assays, with S:B of 19 for Boc_Lys_Ac assay, and 7 for Boc_Lys_TFA assay.
Each compound was tested in duplicate in concentration-response format on 3 separate days. For both biochemical and cellular assays, data is presented as % inhibition from maximal activity (maximal fluorescence response), which was defined as the fluorescence read in the presence of 1% DMSO, with 100% inhibition defined as the fluorescence read in the presence of substantial excess of the respective reference compounds (5 µM TSA, 50 µM Compound 26 depending on target). […]

Experiment [2] deals with AR (h). Description: Cerep binding, agonist radioligand. More on the design: species or system human. As to conditions: 10 μM. An excerpt: In addition to the HDAC profiling performed, we also queried 4b for any apparent potential off-target effects, which could complicate any finding of efficacy or adverse events in vivo due to ‘polypharmacy’. This was accomplished by screening against a ‘diversity panel’ of 72 binding and 29 enzyme assays, comprised of roughly equal numbers of selective central and peripheral therapeutically relevant targets (Cerep Diversity Profile). This panel included representative targets from diverse enzyme families, G protein coupled receptors, steroid nuclear receptors, voltage- and ligand-gated ion channels. While not totally inclusive, it is a useful tool for discovery compounds to assess their viability as proof of concept molecules to specifically query a particular target. 4b was initially screened at 10 µM in duplicate. The full set of results is provided as Table S1. […] This clean in vitro profile was considered acceptable to proceed to ADME and pharmacokinetic studies.

The subject of experiment [3] is HDACs. In words: Biochemical HDAC assays (whole panel). As to conditions: up to 50 µM. More on the design: species or system human. The text has this: To assess the biochemical and cellular potency of 4b and its conversion products/metabolites, we utilized the two-step fluorogenic assay which measures the HDAC-mediated catalytic conversion of synthetic acetylated lysine substrates. In brief, on deacetylation of the substrates by HDAC activity, a protease site is unmasked which allows subsequent trypsin-mediated cleavage and release of the highly flourescent AMC molecules in a subsequent step of the assay. The substrates used were Lys_Ac_AMC (Bachem I-1875) for HDAC3 and (Ac)Arg-Gly-Lys(Ac) (Bachem I-1925) for HDAC1 and HDAC2. […] However, the relatively labile and sterically more demanding trifluoracetyl group is readily hydrolyzed by the catalytically less avid Class IIa enzymes, allowing measurement of Class IIa activity using the 2-step fluorogenic assay. […]
For evaluation of the class selectivity of the compounds, we assessed inhibition against purified recombinant human full length HDAC1 (cat# 50051), HDAC2 (cat# 50052), HDAC3-NcoR2 (cat# 50003) and HDAC8 (cat# 50008): as representative of Class I activity; catalytic domain HDAC4(αα 648–1057), HDAC5 (αα 657–1123; cat # 50005), HDAC7 (αα 518-end; cat # 50007) and HDAC9 (αα 604–1066; cat # 50009) activity: representing all Class IIa activity; and full length HDAC6 (cat#50006): representing Class IIb activity. […]

As for `Nc1ccccc1NC(=O)CCCCCC(=O)Nc1ccccc1` [Compound 4b], the “cellular inhibition, Class IIa/HDAC8 substrate” value in experiment [1] is reported as “no inhibition”. For `O=C(CCCCCc1nc2ccccc2[nH]1)Nc1ccccc1` [Compound C1, 6-(1-H-benzo[d]imidazol-2-yl)-N-phenylhexanamide], the “% inhibition of control specific binding” value in experiment [2] turned out to be 3%. Further, the “activity in the biochemical HDAC assays” value in experiment [3] is “no activity”.
